Laboratory results: patent US20240317724A1, “3,4-METHYLENEDIOXYMETHAMPHETAMINE AND RELATED PS[…] USES THEREOF” (Terran Biosciences Inc., priority 2021, published 2024)

Test: Single oral (PO) dose pharmacokinetics study in rats; plasma concentration of MDMA (and prodrug) by LC-MS/MS
Settings: male SD rats
[1] = 0.50 h after oral dosing of prodrug 10 mg/Kg
[2] = 1.00 h after oral dosing of prodrug 10 mg/Kg
[3] = 2.00 h after oral dosing of prodrug 10 mg/Kg
[4] = 4.00 h after oral dosing of prodrug 10 mg/Kg
[5] = 7.00 h after oral dosing of prodrug 10 mg/Kg
[6] = 24.0 h after oral dosing of prodrug 10 mg/Kg

Structure (SMILES): CC(=O)OCC(C)(C)CC(=O)N(C)C(C)Cc1ccc2c(c1)OCO2 (stereo not shown) [(3-{[2-(2H-1,3-Benzodioxol-5-yl)-1-methylethyl]-N-methylcarbamoyl}-2,2-dimethylpropyl acetate]
- Mean plasma concentration of metabolite MDMA [1]: BLQ (BLQ: Below Lower Limit of Quantification (0.5 ng/mL))
- Mean plasma concentration of metabolite MDMA [2]: BLQ (BLQ: Below Lower Limit of Quantification (0.5 ng/mL))
- Mean plasma concentration of metabolite MDMA [3]: BLQ (BLQ: Below Lower Limit of Quantification (0.5 ng/mL))
- Mean plasma concentration of metabolite MDMA [4]: BLQ (BLQ: Below Lower Limit of Quantification (0.5 ng/mL))
- Mean plasma concentration of metabolite MDMA [5]: BLQ (BLQ: Below Lower Limit of Quantification (0.5 ng/mL))
- Mean plasma concentration of metabolite MDMA [6]: BLQ (BLQ: Below Lower Limit of Quantification (0.5 ng/mL))

Structure (SMILES): CC(Cc1ccc2c(c1)OCO2)N(C)C(=O)CCCCC(=O)O (stereo not shown) [Adipate prodrug of MDMA, 5-{[2-(2H-1,3-Benzodioxol-5-yl)-1-methyl-ethyl]-N-methylcarbamoyl}valeric acid]
- Mean plasma concentration of metabolite MDMA [1]: BLQ (BLQ: Below Lower Limit of Quantification (0.5 ng/mL))
- Mean plasma concentration of metabolite MDMA [2]: BLQ (BLQ: Below Lower Limit of Quantification (0.5 ng/mL))
- Mean plasma concentration of metabolite MDMA [3]: BLQ (BLQ: Below Lower Limit of Quantification (0.5 ng/mL))
- Mean plasma concentration of metabolite MDMA [4]: BLQ (BLQ: Below Lower Limit of Quantification (0.5 ng/mL))
- Mean plasma concentration of metabolite MDMA [5]: BLQ (BLQ: Below Lower Limit of Quantification (0.5 ng/mL))
- Mean plasma concentration of metabolite MDMA [6]: BLQ (BLQ: Below Lower Limit of Quantification (0.5 ng/mL))

Structure (SMILES): CC(Cc1ccc2c(c1)OCO2)N(C)C(=O)N(C)C (stereo not shown) [Dimethylurea prodrug of MDMA, 1-[2-(2H-1,3-Benzodioxol-5-yl)-1-methyl-ethyl]-1,3,3-trimethylurea]
- Mean plasma concentration of metabolite MDMA [1]: BLQ (BLQ: Below Lower Limit of Quantification (0.5 ng/mL))
- Mean plasma concentration of metabolite MDMA [2]: BLQ (BLQ: Below Lower Limit of Quantification (0.5 ng/mL))
- Mean plasma concentration of metabolite MDMA [3]: BLQ (BLQ: Below Lower Limit of Quantification (0.5 ng/mL))
- Mean plasma concentration of metabolite MDMA [4]: BLQ (BLQ: Below Lower Limit of Quantification (0.5 ng/mL))
- Mean plasma concentration of metabolite MDMA [5]: BLQ (BLQ: Below Lower Limit of Quantification (0.5 ng/mL))
- Mean plasma concentration of metabolite MDMA [6]: BLQ (BLQ: Below Lower Limit of Quantification (0.5 ng/mL))

Structure (SMILES): CCOC(=O)N(C)C(C)Cc1ccc2c(c1)OCO2 (stereo not shown) [Ethyl carbamate prodrug of MDMA, Ethyl N-[2-(1,3-benzodioxol-5-yl)-1-methyl-ethyl]-N-methyl-carbamate]
- Mean plasma concentration of metabolite MDMA [1]: BLQ (BLQ: Below Lower Limit of Quantification (0.5 ng/mL))
- Mean plasma concentration of metabolite MDMA [2]: BLQ (BLQ: Below Lower Limit of Quantification (0.5 ng/mL))
- Mean plasma concentration of metabolite MDMA [3]: BLQ (BLQ: Below Lower Limit of Quantification (0.5 ng/mL))
- Mean plasma concentration of metabolite MDMA [4]: BLQ (BLQ: Below Lower Limit of Quantification (0.5 ng/mL))
- Mean plasma concentration of metabolite MDMA [5]: BLQ (BLQ: Below Lower Limit of Quantification (0.5 ng/mL))
- Mean plasma concentration of metabolite MDMA [6]: BLQ (BLQ: Below Lower Limit of Quantification (0.5 ng/mL))

Structure (SMILES): CC(Cc1ccc2c(c1)OCO2)N(C)C(=O)CCCC(=O)O (stereo not shown) [Glutarate Prodrug of MDMA, 4-{[2-(2H-1,3-Benzodioxol-5-yl)-1-methyl-ethyl]-N-methylcarbamoyl}butyric acid]
- Mean plasma concentration of metabolite MDMA [1]: BLQ (BLQ: Below Lower Limit of Quantification (0.5 ng/mL))
- Mean plasma concentration of metabolite MDMA [2]: BLQ (BLQ: Below Lower Limit of Quantification (0.5 ng/mL))
- Mean plasma concentration of metabolite MDMA [3]: BLQ (BLQ: Below Lower Limit of Quantification (0.5 ng/mL))
- Mean plasma concentration of metabolite MDMA [4]: BLQ (BLQ: Below Lower Limit of Quantification (0.5 ng/mL))
- Mean plasma concentration of metabolite MDMA [5]: BLQ (BLQ: Below Lower Limit of Quantification (0.5 ng/mL))
- Mean plasma concentration of metabolite MDMA [6]: BLQ (BLQ: Below Lower Limit of Quantification (0.5 ng/mL))

Structure (SMILES): CC(C)COC(=O)N(C)C(C)Cc1ccc2c(c1)OCO2 (stereo not shown) [Isobutyl carbamate prodrug of MDMA, isobutyl N-[2-(1,3-benzodioxol-5-yl)-1-methyl-ethyl]-N-methyl-carbamate]
- Mean plasma concentration of metabolite MDMA [1]: BLQ (BLQ: Below Lower Limit of Quantification (0.5 ng/mL))
- Mean plasma concentration of metabolite MDMA [2]: BLQ (BLQ: Below Lower Limit of Quantification (0.5 ng/mL))
- Mean plasma concentration of metabolite MDMA [3]: BLQ (BLQ: Below Lower Limit of Quantification (0.5 ng/mL))
- Mean plasma concentration of metabolite MDMA [4]: BLQ (BLQ: Below Lower Limit of Quantification (0.5 ng/mL))
- Mean plasma concentration of metabolite MDMA [5]: BLQ (BLQ: Below Lower Limit of Quantification (0.5 ng/mL))
- Mean plasma concentration of metabolite MDMA [6]: BLQ (BLQ: Below Lower Limit of Quantification (0.5 ng/mL))

Structure (SMILES): CC(C)OC(=O)N(C)C(C)Cc1ccc2c(c1)OCO2 (stereo not shown) [Isopropyl carbamate prodrug of MDMA, isopropyl N-[2-(1,3-benzodioxol-5-yl)-1-methyl-ethyl]-N-methyl-carbamate]
- Mean plasma concentration of metabolite MDMA [1]: BLQ (BLQ: Below Lower Limit of Quantification (0.5 ng/mL))
- Mean plasma concentration of metabolite MDMA [2]: BLQ (BLQ: Below Lower Limit of Quantification (0.5 ng/mL))
- Mean plasma concentration of metabolite MDMA [3]: BLQ (BLQ: Below Lower Limit of Quantification (0.5 ng/mL))
- Mean plasma concentration of metabolite MDMA [4]: BLQ (BLQ: Below Lower Limit of Quantification (0.5 ng/mL))
- Mean plasma concentration of metabolite MDMA [5]: BLQ (BLQ: Below Lower Limit of Quantification (0.5 ng/mL))
- Mean plasma concentration of metabolite MDMA [6]: BLQ (BLQ: Below Lower Limit of Quantification (0.5 ng/mL))

Structure (SMILES): CC(Cc1ccc2c(c1)OCO2)N(C)C(=O)[C@@H](N)CCCCN (stereo partly drawn) [Lysine prodrug of MDMA, (2S)-2,6-diamino-N-[2-(1,3-benzodioxol-5-yl)-1-methyl-ethyl]-N-methyl-hexanamide]
- Mean plasma concentration of metabolite MDMA [1]: BLQ (BLQ: Below Lower Limit of Quantification (0.5 ng/mL))
- Mean plasma concentration of metabolite MDMA [2]: BLQ (BLQ: Below Lower Limit of Quantification (0.5 ng/mL))
- Mean plasma concentration of metabolite MDMA [3]: BLQ (BLQ: Below Lower Limit of Quantification (0.5 ng/mL))
- Mean plasma concentration of metabolite MDMA [4]: BLQ (BLQ: Below Lower Limit of Quantification (0.5 ng/mL))
- Mean plasma concentration of metabolite MDMA [5]: BLQ (BLQ: Below Lower Limit of Quantification (0.5 ng/mL))
- Mean plasma concentration of metabolite MDMA [6]: BLQ (BLQ: Below Lower Limit of Quantification (0.5 ng/mL))
- Tlast of MDMA prodrug (oral dosing of prodrug 10 mg/Kg, analyte prodrug, mean): 24.0 h

Structure (SMILES): CC(=O)N(C)C(C)Cc1ccc2c(c1)OCO2 (stereo not shown) [Methyl amide (acetyl) prodrug of MDMA, N-[2-(2H-1,3-Benzodioxol-5-yl)-1-methyl-ethyl]-N-methylacetamide]
- Mean plasma concentration of metabolite MDMA [1]: BLQ (BLQ: Below Lower Limit of Quantification (0.5 ng/mL))
- Mean plasma concentration of metabolite MDMA [2]: BLQ (BLQ: Below Lower Limit of Quantification (0.5 ng/mL))
- Mean plasma concentration of metabolite MDMA [3]: BLQ (BLQ: Below Lower Limit of Quantification (0.5 ng/mL))
- Mean plasma concentration of metabolite MDMA [4]: BLQ (BLQ: Below Lower Limit of Quantification (0.5 ng/mL))
- Mean plasma concentration of metabolite MDMA [5]: BLQ (BLQ: Below Lower Limit of Quantification (0.5 ng/mL))
- Mean plasma concentration of metabolite MDMA [6]: BLQ (BLQ: Below Lower Limit of Quantification (0.5 ng/mL))
